Reference: patent US20150099883A1, “ARYLOXYUREA COMPOUND AND PEST CONTROL AGENT” (NIPPON SODA CO., LTD., priority 2012, published 2015)

Key:
[1] = tested on: adult female Tetranychus kanzawai from Okayama Prefecture; assay: Efficacy test against Tetranychus kanzawai (spray on kidney bean plant); type: in vivo; settings: 500 ppm emulsion sprayed
Protocol: Ten adult female Tetranychus kanzawai acarus from Okayama Prefecture were inoculated onto the first leaves of a kidney bean plant planted in a No. 3 pot 7 to 10 days after germination. Next, an emulsion was prepared having the formula indicated in the aforementioned Preparation example 2. This emulsion was diluted with water to a compound concentration of 500 ppm or 125 ppm after which the diluted liquids were sprayed onto the kidney bean plant. The kidney bean plant was then placed in a temperature-controlled room at a temperature of 25° C. and humidity of 65%. The life and death of the adult insects were investigated 3 days after the spraying. In addition, the development from eggs laid to adult was investigated 14 days after the spraying.
The aforementioned test was carried out on the emulsion containing the Compound No. 2-1 at 500 ppm. As a result, the insect mortality rates after 3 days and 14 days for the compound were 90% or higher.

CC(C)(NC(=O)NOc1ccc2ncsc2c1)c1ccccn1
melting point: 164 to 166 °C

CCN(Oc1ccc2ncsc2c1)C(=O)N=S(C)(=O)c1ccccc1 (stereo not drawn) [Compound No. 2-1]
insect mortality rate after 3 days ([1]; 3 days after spraying): ≥ 90%
insect mortality rate after 14 days ([1]; 14 days after spraying): ≥ 90%
